Laboratory results published in article PMC10845205, “Discovery of novel antibacterial agent for the infected wound treatment: all-hydrocarbon stapling optimization of LL-37” (Theranostics, 2024).
Converted amounts (≈) assume the structure as drawn. Read-outs that look alike come from different tables or passages of the source. Positions of bridges follow the written chain, without caps; N, C: chain ends. Non-standard residues stand in square brackets, D forms with d. Residues, ends and D or L forms follow the SMILES beside them. R8 = C=CCCCCCC[C@@](C)(N)C(=O)O; S5 = C=CCCC[C@](C)(N)C(=O)O

Tests used:
A. baumannii = tested on: A. baumannii
Protocol: (§1) According to the protocol of Clinical & Laboratory Standards Institute, the minimum inhibitory concentration (MIC) of the linear and stapled peptides against a panel of gram-positive and gram-negative bacteria was determined by the broth microdilution method. […]
(§2) Bacterial strains and culture
(§3) Bacterial type stains ATCC 25923 S. aureus, ATCC 12228 S. epidermidis, ATCC […]
(§4) aeruginosa and ATCC 13883 K. pneumoniae were obtained from Shanghai Bioresource Collection Center. The bacterial culture medium was purchased from Oxoid and autoclaved according to the instructions from manufacturer. The isolated strains were cultured in Mueller Hinton II broth and continuously shaken at 140 rpm for 18 hours to the middle of the exponential growth phase at 37 °C with an OD value of 0.4-0.5.
(§5) Bacterial suspensions with an OD value of 0.1, approximately […], were then diluted for further assays.
(§6) The minimal inhibition concentration (MIC) of the linear and stapled peptides was determined using the microbroth dilution method from the Clinical and Laboratory Standards Institute (CLSI)[2, 3]. Bacterial suspensions of 10 6 CFU/mL were prepared in MH-II broth and peptide solutions at varying concentrations were prepared in phosphate buffer saline (PBS). Then 50 μL peptide solution and 50 μL bacterial suspension were mixed in a 96 -well plate. Plates were incubated for 24 hours at 37 °C.
(§7) 10 μL AlamarBlue cell viability reagent (ThermoFisher Scientific, UK) was added to each well, then the plate was re -incubated for a further 2 hours at 37 °C. The MIC was recorded as the minimum concentration of peptides required to completely in hibit bacteria growth. For serum stability assessment, the peptide solutions were pre - incubated with 50% human serum for 4 h before the MIC determination. Experiments were performed in 3 independent measurements. […]

E. coli = tested on: E. coli
Protocol: as §1, §2, §3, §4, §5, §6, §7

E. faecalis = tested on: E. faecalis
Protocol: as §1, §2, §3, §4, §5, §6, §7

K. pneumoniae = tested on: K. pneumoniae
Protocol: as §1, §2, §3, §4, §5, §6, §7

P. aeruginosa = tested on: P. aeruginosa
Protocol: as §1, §2, §3, §4, §5, §6, §7

S. aureus = tested on: S. aureus
Protocol: as §1, §2, §3, §4, §5, §6, §7

S. epidermidis = tested on: S. epidermidis
Protocol: as §1, §2, §3, §4, §5, §6, §7

Serum stability assay = type: in vitro ADME, human; conditions: for metabolised at 1 h, 0.4 mg/mL: human serum in pH 7.4 PBS, 37 °C, RP-HPLC, read-out: fraction hydrolyzed within 1 h; for TD50 (time at which 50% of the peptide is degraded in the presence of serum): human serum, 2 mg/mL peptide in pH 7.4 PBS mixed with serum 1:4, 37 °C, up to 48 h, RP-HPLC UV 220 nm, 3 independent measurements
From the text: Maintaining high stability and presenting high compatibility in the complex physiological environment are important criterions for the clinical translation of AMPs. […] The derivatives were mixed with human serum in pH 7.4 PBS, simulating the degradation process of peptides by proteases in vivo. The percentages of intact derivatives were monitored and determined with time according to the PR-HPLC. […]
Serum stability of the linear and stapled peptides was examined by RP -HPLC as previously described. 2 mg/mL peptide solution was prepared in pH 7.4 PBS and incubated with human serum (Gemini, USA) to the final volume ratio of 1:4 at 37 °C.
At various time intervals, 50 μL mixture was added to 50 μL ethanol to terminate the enzymatic hydrolysis. After centrifugation at 10,000 rpm for 10 minutes under 4 °C, […]
the supernatant was collected and analyzed by RP-HPLC, with a UV detector monitored at 220 nm. Record the peak area of the intact peptide and calculate the percentage of remaining peptide based on the integrated area as, Peptide remaining (%) = peak area of remaining peptide/peak area of intact peptide×100%. […]

## CC[C@H](C)[C@@H]1NC(=O)[C@H](CCCNC(=N)N)NC(=O)[C@](C)(NC(C)=O)CCCCCCC=CCCC[C@@](C)(C(=O)N[C@@H](CC(=O)O)C(=O)N[C@@H](Cc2ccccc2)C(=O)N[C@@H](CC(C)C)C(=O)N[C@@H](CCCNC(=N)N)C(N)=O)NC(=O)[C@H]([C@@H](C)CC)NC(=O)[C@H](CCCNC(=N)N)NC(=O)[C@H](CCC(N)=O)NC(=O)[C@H](C(C)C)NC1=O [KR-12 (K1, K8)] (Ac-[R8]RIVQRI[S5]DFLR-NH2; staple 1-8)
A. baumannii; 24 h
  MIC A. baumannii: > 256 µg/mL
E. coli; 24 h
  MIC E. coli: >256 µg/mL
E. faecalis; 24 h
  MIC E. faecalis: > 256 µg/mL
K. pneumoniae; 24 h
  MIC K. pneumoniae: > 256 µg/mL
P. aeruginosa; 24 h
  MIC P. aeruginosa: > 256 µg/mL
S. aureus; 24 h
  MIC S. aureus: > 256 µg/mL
S. epidermidis; 24 h
  MIC S. epidermidis: > 256 µg/mL

## CC[C@H](C)[C@@H]1NC(=O)[C@H](CCCNC(=N)N)NC(=O)[C@H](CCC(N)=O)NC(=O)[C@H](C(C)C)NC(=O)[C@](C)(NC(=O)[C@H](CCCNC(=N)N)NC(=O)[C@H](CCCCN)NC(C)=O)CCCCCCC=CCCC[C@@](C)(C(=O)N[C@@H](CC(C)C)C(=O)N[C@@H](CCCNC(=N)N)C(N)=O)NC(=O)[C@H](CC(=O)O)NC(=O)[C@H](CCCCN)NC1=O [KR-12 (I3, F10)] (Ac-KR[R8]VQRIKD[S5]LR-NH2; staple 3-10)
A. baumannii; 24 h
  MIC A. baumannii: 32 µg/mL (≈ 19.5 µM)
E. coli; 24 h
  MIC E. coli: 64 µg/mL (≈ 38.9 µM)
E. faecalis; 24 h
  MIC E. faecalis: 256 µg/mL (≈ 156 µM)
K. pneumoniae; 24 h
  MIC K. pneumoniae: 64 µg/mL (≈ 38.9 µM)
P. aeruginosa; 24 h
  MIC P. aeruginosa: 128 µg/mL (≈ 77.8 µM)
S. aureus; 24 h
  MIC S. aureus: 64 µg/mL (≈ 38.9 µM)
S. epidermidis; 24 h
  MIC S. epidermidis: 256 µg/mL (≈ 156 µM)

## CC[C@H](C)[C@@H]1NC(=O)[C@H](CCCNC(=N)N)NC(=O)[C@](C)(NC(=O)[C@@H](NC(=O)[C@@H](NC(=O)[C@H](CCCNC(=N)N)NC(=O)[C@H](CCCCN)NC(C)=O)[C@@H](C)CC)C(C)C)CCCCCCC=CCCC[C@@](C)(C(N)=O)NC(=O)[C@H](CC(C)C)NC(=O)[C@H](Cc2ccccc2)NC(=O)[C@H](CC(=O)O)NC(=O)[C@H](CCCCN)NC1=O [KR-12 (Q5, R12)] (Ac-KRIV[R8]RIKDFL[S5]-NH2; staple 5-12)
A. baumannii; 24 h
  MIC A. baumannii: 64 µg/mL (≈ 39.5 µM)
E. coli; 24 h
  MIC E. coli: 32 µg/mL (≈ 19.7 µM)
E. faecalis; 24 h
  MIC E. faecalis: 256 µg/mL (≈ 158 µM)
K. pneumoniae; 24 h
  MIC K. pneumoniae: 64 µg/mL (≈ 39.5 µM)
P. aeruginosa; 24 h
  MIC P. aeruginosa: 64 µg/mL (≈ 39.5 µM)
S. aureus; 24 h
  MIC S. aureus: 64 µg/mL (≈ 39.5 µM)
S. epidermidis; 24 h
  MIC S. epidermidis: > 256 µg/mL

## Ac-KRIVQRIKDFLR-NH2 [KR-12, reference compound]
A. baumannii; 24 h
  MIC A. baumannii: > 256 µg/mL
E. coli; 24 h
  MIC E. coli: 128 µg/mL
E. faecalis; 24 h
  MIC E. faecalis: 128 µg/mL
K. pneumoniae; 24 h
  MIC K. pneumoniae: > 256 µg/mL
P. aeruginosa; 24 h
  MIC P. aeruginosa: 256 µg/mL
S. aureus; 24 h
  MIC S. aureus: 32 µg/mL
S. epidermidis; 24 h
  MIC S. epidermidis: > 256 µg/mL
Serum stability assay
  metabolised at 1 h, 0.4 mg/mL: > 50%
  TD50 (time at which 50% of the peptide is degraded in the presence of serum): 0.78 h

## CC[C@H](C)[C@@H]1NC(=O)[C@H](CCCNC(=N)N)NC(=O)[C@H](CCC(N)=O)NC(=O)[C@](C)(NC(=O)[C@@H](NC(=O)[C@H](CCCNC(=N)N)NC(=O)[C@H](CCCCN)NC(C)=O)[C@@H](C)CC)CCCCCCC=CCCC[C@@](C)(C(=O)N[C@@H](CCCNC(=N)N)C(N)=O)NC(=O)[C@H](Cc2ccccc2)NC(=O)[C@H](CC(=O)O)NC(=O)[C@H](CCCCN)NC1=O [KR-12 (V4, L11)] (Ac-KRI[R8]QRIKDF[S5]R-NH2; staple 4-11)
A. baumannii; 24 h
  MIC A. baumannii: 128 µg/mL (≈ 75.6 µM)
E. coli; 24 h
  MIC E. coli: 128 µg/mL (≈ 75.6 µM)
E. faecalis; 24 h
  MIC E. faecalis: > 256 µg/mL
K. pneumoniae; 24 h
  MIC K. pneumoniae: 128 µg/mL (≈ 75.6 µM)
P. aeruginosa; 24 h
  MIC P. aeruginosa: 128 µg/mL (≈ 75.6 µM)
S. aureus; 24 h
  MIC S. aureus: 128 µg/mL (≈ 75.6 µM)
S. epidermidis; 24 h
  MIC S. epidermidis: 256 µg/mL (≈ 151 µM)

## polymyxin b [PMB, reference compound]
A. baumannii; CLSI broth microdilution, MH-II broth, 24 h 37 °C, AlamarBlue, ATCC 19606, 3 independent measurements
  MIC A. baumannii: 4 µg/mL
E. coli; CLSI broth microdilution, MH-II broth, 24 h 37 °C, AlamarBlue, ATCC 25922, 3 independent measurements
  MIC E. coli: 4 µg/mL
E. faecalis; CLSI broth microdilution, MH-II broth, 24 h 37 °C, AlamarBlue, ATCC 29212, 3 independent measurements
  MIC E. faecalis: 256 µg/mL
K. pneumoniae; CLSI broth microdilution, MH-II broth, 24 h 37 °C, AlamarBlue, ATCC 13883, 3 independent measurements
  MIC K. pneumoniae: 16 µg/mL
P. aeruginosa; CLSI broth microdilution, MH-II broth, 24 h 37 °C, AlamarBlue, ATCC 27853, 3 independent measurements
  MIC P. aeruginosa: 8 µg/mL
S. aureus; CLSI broth microdilution, MH-II broth, 10^6 CFU/mL, 24 h 37 °C, AlamarBlue, ATCC 25923, 3 independent measurements
  MIC S. aureus: 64 µg/mL
S. epidermidis; CLSI broth microdilution, MH-II broth, 24 h 37 °C, AlamarBlue, ATCC 12228, 3 independent measurements
  MIC S. epidermidis: 128 µg/mL

## CC[C@H](C)[C@@H]1NC(=O)[C@H](CCCNC(=N)N)NC(=O)[C@H](CCC(N)=O)NC(=O)[C@H](C(C)C)NC(=O)[C@H]([C@@H](C)CC)NC(=O)[C@](C)(NC(=O)[C@H](CCCCN)NC(C)=O)CCCCCCC=CCCC[C@@](C)(C(=O)N[C@@H](Cc2ccccc2)C(=O)N[C@@H](CC(C)C)C(=O)N[C@@H](CCCNC(=N)N)C(N)=O)NC(=O)[C@H](CCCCN)NC1=O [KR-12 (R2, D9)] (Ac-K[R8]IVQRIK[S5]FLR-NH2; staple 2-9)
A. baumannii; 24 h
  MIC A. baumannii: 128 µg/mL (≈ 78.3 µM)
E. coli; 24 h
  MIC E. coli: 128 µg/mL (≈ 78.3 µM)
E. faecalis; 24 h
  MIC E. faecalis: 256 µg/mL (≈ 157 µM)
K. pneumoniae; 24 h
  MIC K. pneumoniae: 128 µg/mL (≈ 78.3 µM)
P. aeruginosa; 24 h
  MIC P. aeruginosa: 256 µg/mL (≈ 157 µM)
S. aureus; 24 h
  MIC S. aureus: 256 µg/mL (≈ 157 µM)
S. epidermidis; 24 h
  MIC S. epidermidis: 64 µg/mL (≈ 39.2 µM)

## CC[C@H](C)[C@H](NC(=O)[C@H](CCCCN)NC(=O)[C@H](CCC(=O)O)NC(=O)[C@H](CCCCN)NC(=O)[C@H](CO)NC(=O)[C@H](CCCCN)NC(=O)[C@H](CCCNC(=N)N)NC(=O)[C@H](Cc1ccccc1)NC(=O)[C@H](Cc1ccccc1)NC(=O)[C@H](CC(=O)O)NC(=O)CNC(=O)[C@H](CC(C)C)NC(=O)[C@@H](N)CC(C)C)C(=O)NCC(=O)N[C@@H](CCCCN)C(=O)N[C@@H](CCC(=O)O)C(=O)N[C@@H](Cc1ccccc1)C(=O)N[C@@H](CCCCN)C(=O)N[C@@H](CCCNC(=N)N)C(=O)N[C@H](C(=O)N[C@H](C(=O)N[C@@H](CCC(N)=O)C(=O)N[C@@H](CCCNC(=N)N)C(=O)N[C@H](C(=O)N[C@@H](CCCCN)C(=O)N[C@@H](CC(=O)O)C(=O)N[C@@H](Cc1ccccc1)C(=O)N[C@@H](CC(C)C)C(=O)N[C@@H](CCCNC(=N)N)C(=O)N[C@@H](CC(N)=O)C(=O)N[C@@H](CC(C)C)C(=O)N[C@H](C(=O)N1CCC[C@H]1C(=O)N[C@@H](CCCNC(=N)N)C(=O)N[C@H](C(=O)N[C@@H](CCC(=O)O)C(=O)N[C@@H](CO)C(=O)O)[C@@H](C)O)C(C)C)[C@@H](C)CC)C(C)C)[C@@H](C)CC [LL-37]
Serum stability assay
  metabolised at 1 h, 0.4 mg/mL: > 50%
  TD50 (time at which 50% of the peptide is degraded in the presence of serum): 0.58 h
